Measured values as given in US20210228523A1, “MODULATORS OF SESTRIN-GATOR2 INTERACTION AND USES THEREOF” (Navitor Pharmaceuticals, Inc., priority 2017, published 2021).

molecular target: T1, GATOR2/Sestrin2 complexes (Homo sapiens, UniProt P58004); experiment: In vitro PPI assay (Method 1; Western blot assay): Sestrin2 bound to GATOR2 after compound addition to immunoprecipitated FLAG-WDR24 complex; type: binding; conditions: 25 μM, % activity relative to leucine (25 μM = 100%)
T1 construct: endogenous in cells; host or cells: HEK293T cells stably expressing FLAG-WDR24 (lentiviral, pLJM60)
T1 sequence (P58004 1-480): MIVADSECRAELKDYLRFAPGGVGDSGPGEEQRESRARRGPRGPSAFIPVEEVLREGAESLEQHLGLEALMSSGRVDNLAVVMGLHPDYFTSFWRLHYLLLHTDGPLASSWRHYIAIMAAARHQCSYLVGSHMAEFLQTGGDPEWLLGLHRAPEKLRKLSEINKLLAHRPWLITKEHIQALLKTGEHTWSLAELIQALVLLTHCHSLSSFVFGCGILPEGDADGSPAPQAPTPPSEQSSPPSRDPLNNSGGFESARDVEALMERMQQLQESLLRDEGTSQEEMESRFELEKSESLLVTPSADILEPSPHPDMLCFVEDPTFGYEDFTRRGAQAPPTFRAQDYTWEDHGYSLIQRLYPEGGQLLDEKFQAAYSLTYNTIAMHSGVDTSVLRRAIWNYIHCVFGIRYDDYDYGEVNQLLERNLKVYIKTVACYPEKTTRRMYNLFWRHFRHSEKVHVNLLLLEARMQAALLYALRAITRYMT
From the text: This screening assay measured test compound activity in vitro on GATOR2/Sestrin2 complexes purified via immunoprecipitation of stably expressed FLAG-WDR24 from HEK293T cells. HEK293T cells (293 Ts) were engineered to stably express N-terminally tagged FLAG-WDR24 via transduction by lentivirus. Lentiviruses were produced by co-transfection of the lentiviral transfer vector pLJM60 with the […] into HEK-293T cells using the XTremeGene 9 transfection reagent (Roche Diagnostics). The media was changed 24 hours post-transfection to Dulbecco's Modified Eagle's media (DMEM) supplemented with 30% Inactivated Fetal Serum. The virus-containing supernatants were collected 48 and 72 hours after transfection and passed through a 0.45 μm filter to eliminate cells. Target cells in 6-well tissue culture plates were infected in media containing 8 μg/mL polybrene and spin infections were performed by centrifugation at 2,200 rpm for 1 hour. Twenty-four hours after infection, the virus was removed and the cells selected with the appropriate antibiotic. Cells were then grown in DMEM supplemented with 10% fetal bovine serum and antibiotics.
Seventy-two hours later, cells were placed in standard RPMI media formulated with no amino acids and supplemented with 5 mM Glucose (−AA RPMI, US Biological Life Sciences) for 1 hour then subsequently lysed in lysis buffer (40 mM HEPES, 1% Triton, 10 mM sodium β-glycerophosphate, 10 mM sodium pyrophosphate, 2.5 mM MgCl2 and protease inhibitors). To isolate the FLAG-WDR24/endogenous-Sestrin2 complex, crude lysate (equivalent to 2-4 mg of total protein) in a volume of 1 ml was subjected to immunoprecipitation with 30 μl of anti-flag resin (SIGMA) for 2 hours at 4° C., washed twice in cold lysis buffer plus 0.5M NaCl and resuspended in 1 ml of cold cytosolic buffer (40 mM HEPES pH 7.4, 140 mM KCl, 10 mM NaCl, 2.5 mM MgCl2, 0.1% TritonX-100). […] After the incubation period, samples were centrifuged to pellet the FLAG-WDR24/endogenous-Sestrin2 complex bound to the anti-flag resin, the supernatant was completely removed and resin was resuspended in SDS-PAGE sample buffer and boiled for 5 minutes. Samples were then processed by SDS-PAGE and western blots were performed with anti-FLAG (SIGMA) and anti-Sestrin2 (Cell Signaling Technology) antibodies as described in L. Chantranupong, et al., Cell Reports 9:1-8 (2014).
The resulting western blots were scanned and band intensities corresponding to Sestrin2 and FLAG-WDR24 were quantified using the LI-COR® imaging platform. To determine the amount of Sestrin2 bound to GATOR2 for each condition, the band intensity for Sestrin2 was normalized to the band intensity of FLAG-WDR24. […]
72 hours later, cells were placed in standard RPMI media formulated with no amino acids and supplemented with 5 mM Glucose (−AA RPMI, USBiological Life Sciences) for 1 hour then subsequently lysed in lysis buffer (40 mM HEPES, 1% Triton, 10 mM Sodium Beta-Glycerophosphate, 10 mM Sodium Pyrophosphate, 2.5 mM MgCl2 and protease inhibitors). The Flag-WDR24/endogenous-Sestrin2 complex was isolated as follows: crude lysate (equivalent to 2-4 mg of total protein) in a volume of 1 ml was subjected to immunoprecipitation (IP) with 30 μl of anti-flag resin (SIGMA) for 2 hours at 4° C., washed twice in cold lysis buffer plus 0.5M NaCl and resuspended in 1 ml of cold cytosolic buffer (40 mM HEPES pH 7.4, 140 mM KCl, 10 mM NaCl, 2.5 mM MgCl2, 0.1% TritonX-100). Compounds were then added to each sample at a given concentration of 25 μM and incubated with rotation at 4° C. for 30 minutes. After the incubation period, samples were centrifuged to pellet the Flag-WDR24/endogenous-Sestrin2 complex bound to the anti-flag resin, the supernatant was completely removed and resin was resuspended in sodium dodecyl sulfate-polyacrylamide gel electrophoresis (SDS-PAGE) sample buffer and boiled for 5 minutes. […]

| Structure (SMILES) | Activity of Leucine: % Activity |
| --- | --- |
| CC(C)C[C@H](NS(=O)(=O)c1ccccc1)C(=O)O [Compound I-25, (S)-4-methyl-2-(phenylsulfonamido)pentanoic Acid] | C (a % activity relative to leucine of between -40 and 40%) |
| CCCC[C@H](N)C(=O)O [Compound I-31] | A (a % activity relative to leucine of ≥40%) |
| CC(C)C[C@@H](N)S(=O)(=O)O [Compound I-156] | C (a % activity relative to leucine of between -40 and 40%) |
| N[C@H](CC(F)(F)F)C(=O)O [Compound I-5, (R)-2-amino-4,4,4-trifluorobutanoic Acid] | B (a % activity relative to leucine of ≤−40%) |
| CC(C)(C)C[C@H](N)C(N)=O [Compound I-48] | C (a % activity relative to leucine of between -40 and 40%) |
| CC(C)C[C@H](NC(=O)C(C)C)C(=O)O [Compound I-16, (S)-2-isobutyramido-4-methylpentanoic Acid] | C (a % activity relative to leucine of between -40 and 40%) |
| N[C@@H](CCC(F)(F)F)C(=O)O [Compound I-6, (S)-2-amino-5,5,5-trifluoropentanoic Acid] | C (a % activity relative to leucine of between -40 and 40%) |
| CC(C)C[C@H](N)C(=O)NS(C)(=O)=O.Cl [Compound I-147, (S)-2-amino-4-methyl-N-(methylsulfonyl)pentanamide Hydrochloride] | A (a % activity relative to leucine of ≥40%) |
| CN[C@@H](CC(C)(C)C)C(=O)O [Compound I-50] | C (a % activity relative to leucine of between -40 and 40%) |
| CC(C)CC(N)S(=O)(=O)O (stereo not shown) [Compound I-33] | C (a % activity relative to leucine of between -40 and 40%) |
| N[C@@H](CC1CC1)C(=O)O [Compound I-35] | A (a % activity relative to leucine of ≥40%) |
| Cl.N[C@H](CCCCC(F)(F)F)C(=O)O [Compound I-3, (R)-2-amino-7,7,7-trifluoroheptanoic Acid Hydrochloride] | B (a % activity relative to leucine of ≤−40%) |
| CC(C)CN[C@@H](CC(C)C)C(=O)O [Compound I-14, (S)-2-(isobutylamino)-4-methylpentanoic Acid] | B (a % activity relative to leucine of ≤−40%) |
| CC(C)C[C@H](N)C(=O)NC(C)C [Compound I-166] | C (a % activity relative to leucine of between -40 and 40%) |
| CC(C)C(F)(F)[C@@H](N)C(=O)O [Compound I-47, (S)-2-amino-3,3-difluoro-4-methylpentanoic Acid] | C (a % activity relative to leucine of between -40 and 40%) |
| CC(C)C[C@H](NS(=O)(=O)C1CCCCC1)C(=O)O [Compound I-17, (S)-2-(cyclohexanesulfonamido)-4-methylpentanoic Acid] | C (a % activity relative to leucine of between -40 and 40%) |
| CN(C)[C@@H](CC(C)(C)C)C(N)=O [Compound I-158] | C (a % activity relative to leucine of between -40 and 40%) |
| N[C@H](CCC(F)(F)F)C(=O)O [Compound I-7, (R)-2-amino-5,5,5-trifluoropentanoic Acid] | B (a % activity relative to leucine of ≤−40%) |
| N[C@H](CC(C(F)(F)F)C(F)(F)F)C(=O)O [Compound I-163] | A (a % activity relative to leucine of ≥40%) |
| CC(C)C[C@H](Nc1ccccc1)C(=O)O [Compound I-26, (S)-4-methyl-2-(phenylamino)pentanoic Acid] | C (a % activity relative to leucine of between -40 and 40%) |
| COCCC(N)C(=O)O (stereo not shown) [Compound I-39] | C (a % activity relative to leucine of between -40 and 40%) |
| CC(C)C[C@H](NC(=O)Cc1ccccc1)C(=O)O [Compound I-12, (S)-4-methyl-2-(2-phenylacetamido)pentanoic Acid] | C (a % activity relative to leucine of between -40 and 40%) |
| CC(C)C[C@H](NCc1ccccc1)C(=O)O [Compound I-11, (S)-2-(benzylamino)-4-methylpentanoic Acid] | C (a % activity relative to leucine of between -40 and 40%) |
| CC(C)C[C@H](N)C(=O)NC(C)(C)C [Compound I-165] | A to C |
| CC(=O)N[C@@H](CC(C)C)C(=O)O [Compound I-36, (S)-2-acetamido-4-methylpentanoic Acid] | B (a % activity relative to leucine of ≤−40%) |
| CC(C[C@@H](N)C(=O)O)C(F)(F)F (stereo in doubt) [Compound I-146, (2R,4S)-2-amino-5,5,5-trifluoro-4-methylpentanoic Acid] | A (a % activity relative to leucine of ≥40%) |
| Cl.N[C@@H](CCCCC(F)(F)F)C(=O)O [Compound I-2, (S)-2-amino-7,7,7-trifluoroheptanoic Acid Hydrochloride] | B (a % activity relative to leucine of ≤−40%) |
| CC(C)C[C@H](N)C(=O)N(C)C [Compound I-149] | C (a % activity relative to leucine of between -40 and 40%) |
